For assay [1], the system named is Beet Armyworm (Spodoptera exigua) ("BAW"), second instar larvae. As to the kind of experiment: Bioassay on beet armyworm (BAW), 128-well diet tray assay. It is filed as in vivo. The settings on record: Spodoptera exigua, read-out: BAW (Biological Results, rating). The procedure, abridged: (§1)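 Mortality (%) is scored well by well after five to seven days at 25° C. on a 14:10 light:dark regime. The value given is the mean of eight wells.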

The test system of assay [2] is Cabbage Looper (Trichoplusia ni) ("CL"), second instar larvae. As to the kind of experiment: Bioassay on cabbage looper (CL), 128-well diet tray assay. The class given is in vivo. The settings on record: Trichoplusia ni, read-out: CL (Biological Results, rating). The procedure, abridged: as §1

For the compound `COC(C)c1ccc(C)cc1N1C(=O)CS/C1=N\C(=O)Nc1ccc(-c2ncn(-c3ccc(OC(F)(F)F)cc3)n2)cc1C(C)C` (stereo not shown) [Compound J94, (Z)-1-(2-Isopropyl-4-(1-(4-(trifluoromethoxy)phenyl)-1H-1,2,4-triazol-3-yl)phenyl)-3-(3-(2-(1-methoxyethyl)-5-methylphenyl)-4-oxothiazolidin-2-ylidene)urea], the pest or weed control at 50 µg/cm2 in assay [1] and in assay [2] was 50 to 100% each time.

Consider `Cc1ccc(C(C)C)c(N2C(=O)CS/C2=N\C(=O)Nc2c(C)cc(-c3ncn(-c4ccc(OC(F)(F)F)cc4)n3)cc2C)c1` [Compound J95, (Z)-1-(2,6-Dimethyl-4-(1-(4-(trifluoromethoxy)phenyl)-1H-1,2,4-triazol-3-yl)phenyl)-3-(3-(2-isopropyl-5-methylphenyl)-4-oxothiazolidin-2-ylidene)urea], for which the pest or weed control at 50 µg/cm2 in assay [1] and in assay [2] was 50 to 100% in each case.

In the case of `Cc1cc(-c2ncn(-c3ccc(OC(F)(F)F)cc3)n2)cc(C)c1NC(=O)/N=C1\SCC(=O)N1c1cc(N(C)C)ccc1C(C)C` [Compound J96, (Z)-1-(2,6-Dimethyl-4-(1-(4-(trifluoromethoxy)phenyl)-1H-1,2,4-triazol-3-yl)phenyl)-3-(3-(5-(dimethylamino)-2-isopropylphenyl)-4-oxothiazolidin-2-ylidene)urea], the pest or weed control at 50 µg/cm2 in assay [1] and in assay [2] was 50 to 100% in each case.

For the compound `COC(C)c1ccc(C)cc1N1C(=O)CS/C1=N\C(=O)Nc1c(C)cc(-c2ncn(-c3ccc(OC(F)(F)F)cc3)n2)cc1C` (stereo not shown) [Compound J97, (Z)-1-(2,6-Dimethyl-4-(1-(4-(trifluoromethoxy)phenyl)-1H-1,2,4-triazol-3-yl)phenyl)-3-(3-(2-(1-methoxyethyl)-5-methylphenyl)-4-oxothiazolidin-2-ylidene)urea], the pest or weed control at 50 µg/cm2 in assay [1] and in assay [2] was 50 to 100% in each case.

Consider `COc1ccc(C(C)C)c(N2C(=O)CS/C2=N\C(=O)Nc2c(C)cc(-c3ncn(-c4ccc(OC(F)(F)F)cc4)n3)cc2C)c1` [Compound J98, (Z)-1-(2,6-Dimethyl-4-(1-(4-(trifluoromethoxy)phenyl)-1H-1,2,4-triazol-3-yl)phenyl)-3-(3-(2-isopropyl-5-methoxyphenyl)-4-oxothiazolidin-2-ylidene)urea], for which the pest or weed control at 50 µg/cm2 in assay [1] and in assay [2] was 50 to 100% in each case.

As for `Cc1ccc(C(C)C)c(N2C(=O)CS/C2=N\C(=O)Nc2ccc(-c3ncn(-c4ccc(OC(F)(F)F)cc4)n3)cc2C(C)C)c1` [Compound J99, (Z)-1-(2-Isopropyl-4-(1-(4-(trifluoromethoxy)phenyl)-1H-1,2,4-triazol-3-yl)phenyl)-3-(3-(2-isopropyl-5-methylphenyl)-4-oxothiazolidin-2-ylidene)urea], the pest or weed control at 50 µg/cm2 in assay [1] and in assay [2] was 50 to 100% throughout.

With `COc1ccc(C(C)C)c(N2C(=O)CS/C2=N\C(=O)Nc2ccc(-c3ncn(-c4ccc(OC(F)(F)F)cc4)n3)cc2C(C)C)c1` [Compound J100, (Z)-1-(2-Isopropyl-4-(1-(4-(trifluoromethoxy)phenyl)-1H-1,2,4-triazol-3-yl)phenyl)-3-(3-(2-isopropyl-5-methoxyphenyl)-4-oxothiazolidin-2-ylidene)urea], the pest or weed control at 50 µg/cm2 in assay [1] and in assay [2] was 50 to 100% throughout.

Consider `CC(C)c1cc(-c2ncn(-c3ccc(OC(F)(F)F)cc3)n2)ccc1NC(=O)/N=C1\SCC(=O)N1c1cc(N(C)C)ccc1C(C)C` [Compound J101, (Z)-1-(3-(5-(Dimethylamino)-2-isopropylphenyl)-4-oxothiazolidin-2-ylidene)-3-(2-isopropyl-4-(1-(4-(trifluoromethoxy)phenyl)-1H-1,2,4-triazol-3-yl)phenyl)urea], for which the pest or weed control at 50 µg/cm2 in assay [1] and in assay [2] was 50 to 100% in each case.

Regarding `Cc1cc(-c2ncn(-c3ccc(OC(F)(F)F)cc3)n2)ccc1NC(=O)/N=C1\SCC(=O)N1c1cc(N(C)C)ccc1OCCC(F)(F)F` [Compound J102, (Z)-1-(3-(5-(Dimethylamino)-2-(3,3,3-trifluoropropoxy)phenyl)-4-oxothiazolidin-2-ylidene)-3-(2-methyl-4-(1-(4-(trifluoromethoxy)phenyl)-1H-1,2,4-triazol-3-yl)phenyl)urea], the pest or weed control at 50 µg/cm2 in assay [1] and in assay [2] was 50 to 100% in each case.

Turning to `CCNc1ccc(C(C)C)c(N2C(=O)CS/C2=N\C(=O)Nc2ccc(-c3ncn(-c4ccc(OC(F)(F)F)cc4)n3)cc2F)c1` [Compound J106, (Z)-1-(3-(5-(Ethylamino)-2-isopropylphenyl)-4-oxothiazolidin-2-ylidene)-3-(2-fluoro-4-(1-(4-(trifluoromethoxy)phenyl)-1H-1,2,4-triazol-3-yl)phenyl)urea], the pest or weed control at 50 µg/cm2 in assay [1] and in assay [2] was 50 to 100% throughout.

As to `CCCNc1ccc(C(C)C)c(N2C(=O)CS/C2=N\C(=O)Nc2ccc(-c3ncn(-c4ccc(OC(F)(F)F)cc4)n3)cc2F)c1` [Compound J107, (Z)-1-(2-Fluoro-4-(1-(4-(trifluoromethoxy)phenyl)-1H-1,2,4-triazol-3-yl)phenyl)-3-(3-(2-isopropyl-5-(propylamino)phenyl)-4-oxothiazolidin-2-ylidene)urea], the pest or weed control at 50 µg/cm2 in assay [1] and in assay [2] was 50 to 100% in each case.

`CCCN(CCC)c1ccc(C(C)C)c(N2C(=O)CS/C2=N\C(=O)Nc2ccc(-c3ncn(-c4ccc(OC(F)(F)F)cc4)n3)cc2F)c1` [Compound J108, (Z)-1-(3-(5-(Dipropylamino)-2-isopropylphenyl)-4-oxothiazolidin-2-ylidene)-3-(2-fluoro-4-(1-(4-(trifluoromethoxy)phenyl)-1H-1,2,4-triazol-3-yl)phenyl)urea]: the pest or weed control at 50 µg/cm2 in assay [1] and in assay [2] was 50 to 100% throughout.

Regarding `COc1cc(-c2ncn(-c3ccc(OC(F)(F)F)cc3)n2)ccc1NC(=O)/N=C1\SCC(=O)N1c1cc(N(C)C)ccc1OCCC(F)(F)F` [Compound J109, (Z)-1-(3-(5-(Dimethylamino)-2-(3,3,3-trifluoropropoxy)phenyl)-4-oxothiazolidin-2-ylidene)-3-(2-methoxy-4-(1-(4-(trifluoromethoxy)phenyl)-1H-1,2,4-triazol-3-yl)phenyl)urea], the pest or weed control at 50 µg/cm2 in assay [1] and in assay [2] was 50 to 100% each time.

Consider `CCc1cc(-c2ncn(-c3ccc(OC(F)(F)F)cc3)n2)ccc1NC(=O)/N=C1\SCC(=O)N1c1cc(N(C)C)ccc1OCCC(F)(F)F` [Compound J110, (Z)-1-(3-(5-(Dimethylamino)-2-(3,3,3-trifluoropropoxy)phenyl)-4-oxothiazolidin-2-ylidene)-3-(2-ethyl-4-(1-(4-(trifluoromethoxy)phenyl)-1H-1,2,4-triazol-3-yl)phenyl)urea], for which the pest or weed control at 50 µg/cm2 in assay [1] and in assay [2] was 50 to 100% each time.

As to `CC(C)c1cc(-c2ncn(-c3ccc(OC(F)(F)F)cc3)n2)ccc1NC(=O)/N=C1\SCC(=O)N1c1cc(N(C)C)ccc1OCCC(F)(F)F` [Compound J111, (Z)-1-(3-(5-(Dimethylamino)-2-(3,3,3-trifluoropropoxy)phenyl)-4-oxothiazolidin-2-ylidene)-3-(2-isopropyl-4-(1-(4-(trifluoromethoxy)phenyl)-1H-1,2,4-triazol-3-yl)phenyl)urea], the pest or weed control at 50 µg/cm2 in assay [1] and in assay [2] was 50 to 100% in each case.

For the compound `CC(C)c1cc(N(C)C)ccc1N1C(=O)CS/C1=N\C(=O)Nc1ccc(-c2ncn(-c3ccc(OC(F)(F)F)cc3)n2)cc1F` [Compound J112, (Z)-1-(3-(4-(Dimethylamino)-2-isopropylphenyl)-4-oxothiazolidin-2-ylidene)-3-(2-fluoro-4-(1-(4-(trifluoromethoxy)phenyl)-1H-1,2,4-triazol-3-yl)phenyl)urea], the pest or weed control at 50 µg/cm2 in assay [1] and in assay [2] was 50 to 100% throughout.

Turning to `Cc1ccc(C(C)C)c(N2C(=O)CS/C2=N\C(=O)Nc2ccc(-c3ncn(-c4ccc(OC(F)(F)F)cc4)n3)cc2C(F)(F)F)c1` [Compound J114, (Z)-1-(3-(2-Isopropyl-5-methylphenyl)-4-oxothiazolidin-2-ylidene)-3-(4-(1-(4-(trifluoromethoxy)phenyl)-1H-1,2,4-triazol-3-yl)-2-(trifluoromethyl)phenyl)urea], the pest or weed control at 50 µg/cm2 in assay [1] and in assay [2] was 50 to 100% throughout.

For the compound `Cc1ccc(OCC(F)(F)F)c(N2C(=O)CS/C2=N\C(=O)Nc2ccc(-c3ncn(-c4ccc(OC(F)(F)F)cc4)n3)cc2C(F)(F)F)c1` [Compound J115, (Z)-1-(3-(5-Methyl-2-(2,2,2-trifluoroethoxy)phenyl)-4-oxothiazolidin-2-ylidene)-3-(4-(1-(4-(trifluoromethoxy)phenyl)-1H-1,2,4-triazol-3-yl)-2-(trifluoromethyl)phenyl)urea], the pest or weed control at 50 µg/cm2 in assay [1] and in assay [2] was 50 to 100% in each case.

With `COC(C)c1ccc(C)cc1N1C(=O)CS/C1=N\C(=O)Nc1ccc(-c2ncn(-c3ccc(OC(F)(F)F)cc3)n2)cc1C(F)(F)F` (stereo not shown) [Compound J117, (Z)-1-(3-(2-(1-Methoxyethyl)-5-methylphenyl)-4-oxothiazolidin-2-ylidene)-3-(4-(1-(4-(trifluoromethoxy)phenyl)-1H-1,2,4-triazol-3-yl)-2-(trifluoromethyl)phenyl)urea], the pest or weed control at 50 µg/cm2 in assay [1] and in assay [2] was 50 to 100% in each case.

`CN(C)c1ccc(OCCC(F)(F)F)c(N2C(=O)CS/C2=N\C(=O)Nc2ccc(-c3ncn(-c4ccc(OC(F)(F)F)cc4)n3)cc2C(F)(F)F)c1` [Compound J118, (Z)-1-(3-(5-(Dimethylamino)-2-(3,3,3-trifluoropropoxy)phenyl)-4-oxothiazolidin-2-ylidene)-3-(4-(1-(4-(trifluoromethoxy)phenyl)-1H-1,2,4-triazol-3-yl)-2-(trifluoromethyl)phenyl)urea]: the pest or weed control at 50 µg/cm2 in assay [1] and in assay [2] was 50 to 100% each time.

The values are drawn from US20230077362A1 (CORTEVA AGRISCIENCE LLC, priority 2019, published 2023).
